# Species on record: Rattus norvegicus
# Assay: Open TG-GATES - Regimen: Daily Repeat
# Assay type: toxicity, organism-based, Sprague-Dawley
# Set-up: regimen Daily Repeat, gender Male, age 6 weeks
# Conditions: in vivo, po, route gavage; for APTT / Bas / Eos / Fbg / Hb / Ht / Lym / MCH / MCV / Mono / Neu / PT / Plat / RBC / Ret / WBC: tissue Blood; for KIDNEY_L / KIDNEY_R / KIDNEY_TOTAL: tissue Kidney; for LIVER: tissue Liver; for ALP / ALT / AST / BUN / CRE / Ca / Cl / DBIL / GLC / IP / K / LDH / Na / PL / RALB / TBIL / TP / gamma-GTP: tissue Plasma
# [1] = 0 mg/kg, 72 h, dose level Control, time 3 day
# [2] = 0 mg/kg, […], dose level Control, time 7 day
# [3] = 0 mg/kg, […], dose level Control, time 14 day
# [4] = 0 mg/kg, […], dose level Control, time 28 day
compound,measurement,setting,value
NC(=O)N1c2ccccc2C=Cc2ccccc21 [CARBAMAZEPINE],TERMINAL_BW,[1],235.3 g
same,APTT,[1],19.1 s
same,Bas,[1],0%
same,Eos,[1],1%
same,Fbg,[1],213.8 mg/dL
same,Hb,[1],13.6 g/dL
same,Ht,[1],40.2%
same,Lym,[1],79%
same,MCH,[1],21 pg
same,MCV,[1],61.9 fL
same,Mono,[1],3.6%
same,Neu,[1],15.6%
same,PT,[1],12.3 s
same,Plat,[1],123.2 x10_4/uL
same,RBC,[1],648.8 x10_4/ul
same,Ret,[1],4.9%
same,WBC,[1],95.6 x10_2/uL
same,KIDNEY_L,[1],1.1 g
same,KIDNEY_R,[1],1.1 g
same,KIDNEY_TOTAL,[1],2.2 g
same,LIVER,[1],11.5 g
same,ALP,[1],1022.4 IU/L
same,ALT,[1],41.4 IU/L
same,AST,[1],77 IU/L
same,BUN,[1],15.6 mg/dL
same,CRE,[1],0.4 mg/dL
same,Ca,[1],10.7 mg/dL
same,Cl,[1],102.4 meq/L
same,DBIL,[1],0.08 mg/dL
same,GLC,[1],213.8 mg/dL
same,IP,[1],7.8 mg/dL
same,K,[1],3.8 meq/L
same,LDH,[1],178.8 IU/L
same,Na,[1],140.4 meq/L
same,PL,[1],144 mg/dL
same,RALB,[1],3.3 g/dL
same,TBIL,[1],0.1 mg/dL
same,TP,[1],5.6 g/dL
same,gamma-GTP,[1],0.8 IU/L
same,TERMINAL_BW,[2],265.1 g
same,TERMINAL_BW,[3],321.1 g
same,TERMINAL_BW,[4],388.8 g
same,APTT,[2],21.2 s
same,Bas,[2],0%
same,Eos,[2],1%
same,Fbg,[2],223 mg/dL
same,Hb,[2],14 g/dL
same,Ht,[2],40.8%
same,Lym,[2],81%
same,MCH,[2],20.8 pg
same,MCV,[2],60.5 fL
same,Mono,[2],2.4%
same,Neu,[2],14.4%
same,PT,[2],11.9 s
same,Plat,[2],122.6 x10_4/uL
same,RBC,[2],674.4 x10_4/ul
same,Ret,[2],3.8%
same,WBC,[2],90.9 x10_2/uL
same,APTT,[3],22 s
same,Bas,[3],0%
same,Eos,[3],1%
same,Fbg,[3],219 mg/dL
same,Hb,[3],14.5 g/dL
same,Ht,[3],41.7%
same,Lym,[3],82.2%
same,MCH,[3],20.7 pg
same,MCV,[3],59.6 fL
same,Mono,[3],2.6%
same,Neu,[3],13.2%
same,PT,[3],12.2 s
same,Plat,[3],129 x10_4/uL
same,RBC,[3],700.4 x10_4/ul
same,Ret,[3],4.2%
same,WBC,[3],120.8 x10_2/uL
same,APTT,[4],20.4 s
same,Bas,[4],0%
same,Eos,[4],1.2%
same,Fbg,[4],212.8 mg/dL
same,Hb,[4],15.3 g/dL
same,Ht,[4],43.3%
same,Lym,[4],81%
same,MCH,[4],20.1 pg
same,MCV,[4],56.8 fL
same,Mono,[4],2.4%
same,Neu,[4],14.6%
same,PT,[4],12.2 s
same,Plat,[4],111.8 x10_4/uL
same,RBC,[4],762 x10_4/ul
same,Ret,[4],2.4%
same,WBC,[4],105.6 x10_2/uL
same,KIDNEY_L,[2],1.1 g
same,KIDNEY_R,[2],1.1 g
same,KIDNEY_TOTAL,[2],2.3 g
same,KIDNEY_L,[3],1.3 g
same,KIDNEY_R,[3],1.2 g
same,KIDNEY_TOTAL,[3],2.5 g
same,KIDNEY_L,[4],1.4 g
same,KIDNEY_R,[4],1.4 g
same,KIDNEY_TOTAL,[4],2.8 g
same,LIVER,[2],12.2 g
same,LIVER,[3],13.6 g
same,LIVER,[4],15.2 g
same,ALP,[2],993 IU/L
same,ALT,[2],37.6 IU/L
same,AST,[2],74 IU/L
same,BUN,[2],16.8 mg/dL
same,CRE,[2],0.4 mg/dL
same,Ca,[2],10.5 mg/dL
same,Cl,[2],102.4 meq/L
same,DBIL,[2],0.1 mg/dL
same,GLC,[2],218.2 mg/dL
same,IP,[2],7.5 mg/dL
same,K,[2],3.8 meq/L
same,LDH,[2],218.6 IU/L
same,Na,[2],140.6 meq/L
same,PL,[2],158.6 mg/dL
same,RALB,[2],3.5 g/dL
same,TBIL,[2],0.2 mg/dL
same,TP,[2],5.8 g/dL
same,gamma-GTP,[2],1 IU/L
same,ALP,[3],817.2 IU/L
same,ALT,[3],36 IU/L
same,AST,[3],64 IU/L
same,BUN,[3],16.7 mg/dL
same,CRE,[3],0.5 mg/dL
same,Ca,[3],10.7 mg/dL
same,Cl,[3],102.4 meq/L
same,DBIL,[3],0.1 mg/dL
same,GLC,[3],207.4 mg/dL
same,IP,[3],7 mg/dL
same,K,[3],3.8 meq/L
same,LDH,[3],204.6 IU/L
same,Na,[3],141.6 meq/L
same,PL,[3],151.4 mg/dL
same,RALB,[3],3.5 g/dL
same,TBIL,[3],0.2 mg/dL
same,TP,[3],5.9 g/dL
same,gamma-GTP,[3],1 IU/L
same,ALP,[4],739.6 IU/L
same,ALT,[4],35.4 IU/L
same,AST,[4],68.2 IU/L
same,BUN,[4],18 mg/dL
same,CRE,[4],0.5 mg/dL
same,Ca,[4],10.3 mg/dL
same,Cl,[4],102 meq/L
same,DBIL,[4],0.1 mg/dL
same,GLC,[4],224.8 mg/dL
same,IP,[4],6.7 mg/dL
same,K,[4],3.4 meq/L
same,LDH,[4],182.6 IU/L
same,Na,[4],141 meq/L
same,PL,[4],147.8 mg/dL
same,RALB,[4],3.4 g/dL
same,TBIL,[4],0.2 mg/dL
same,TP,[4],6.2 g/dL
same,gamma-GTP,[4],1.2 IU/L
same,TERMINAL_BW,"30 mg/kg, 72 h, dose level Low, time 3 day",237.7 g

# Reference: ChEMBL document CHEMBL3885861, “Open TG-GATES”
